Test results taken from PubChem BioAssay AID276 (DTP/NCI, 2004).
“And” between values parts separate entries of the source, which are not always exact repeats. Identical values can stand only once. Toxic doses and inconclusive results are not listed. How the source made its calls: active means survival T/C of 150% or more; inactive means T/C below 125% in these data.

Tested on: B6C3F1 mice, Lewis lung carcinoma iv, survival T/C
Assay: NCI In Vivo Anticancer Drug Screen. Data for tumor model Lewis Lung Carcinoma (intravenous) in B6C3F1 mice
Conditions: endpoint: median survival time, schedule: Q01DX009 (ip), higher = longer survival
Summary of the method: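 Read-out is survival, expressed as the treated-group measurement over the vehicle control-group measurement. Animals bore a transplantable tumor and were given compound.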

[1] = dose: 200.0 mg/kg/injection, vehicle: Klucel (hydroxypropylcellulose) (HPC)
[2] = dose: 400.0 mg/kg/injection, vehicle: Klucel (hydroxypropylcellulose) (HPC)
[3] = dose: 800.0 mg/kg/injection, vehicle: Klucel (hydroxypropylcellulose) (HPC)
[4] = dose: 25.0 mg/kg/injection, vehicle: saline
[5] = dose: 50.0 mg/kg/injection, vehicle: saline
[6] = dose: 100.0 mg/kg/injection, vehicle: saline
[7] = dose: 25.0 mg/kg/injection, vehicle: Klucel (hydroxypropylcellulose) (HPC)
[8] = dose: 50.0 mg/kg/injection, vehicle: Klucel (hydroxypropylcellulose) (HPC)
[9] = dose: 100.0 mg/kg/injection, vehicle: Klucel (hydroxypropylcellulose) (HPC)
[10] = dose: 25.0 mg/kg/injection, vehicle: saline with Tween-80
[11] = dose: 50.0 mg/kg/injection, vehicle: saline with Tween-80
[12] = dose: 100.0 mg/kg/injection, vehicle: saline with Tween-80
[13] = dose: 12.5 mg/kg/injection, vehicle: Klucel (hydroxypropylcellulose) (HPC)

Measured: T/C

CN(C)c1ccc2c(SCC(=O)OCC(=O)[C@@]3(O)CC[C@H]4[C@@H]5CCC6=CC(=O)C=C[C@]6(C)[C@H]5C(=O)C[C@@]43C)c3ccc(N(C)C)cc3nc2c1
inactive: [1] 94 % of control | [2] 99 % of control | [3] 101 % of control

C=CCOCC1CO1 (stereo unspecified)
inactive: dose: 12.5 mg/kg/injection, vehicle: saline 105 % of control | [4] 100 % of control | [5] 99 % of control | [6] 104 % of control | dose: 200.0 mg/kg/injection, vehicle: saline 115 % of control

Cc1cc(NC(=S)SCc2ccc3c(c2)OCO3)ccc1Cl
inactive: [7] 114 % of control | [8] 114 % of control | [9] 115 % of control

CC(=O)ON(C(C)=O)c1ccc(C(N)=O)cc1
inactive: [10] 102 % of control | [11] 93 % of control | [12] 107 % of control | dose: 200.0 mg/kg/injection, vehicle: saline with Tween-80 99 % of control | dose: 400.0 mg/kg/injection, vehicle: saline with Tween-80 106 % of control

Cc1cc(Nc2ccc3c(c2)OCO3)c2cc3c(cc2n1)OCO3
inactive: [13] 100 % of control | [7] 98 % of control | [8] 98 % of control and 104 % of control | [9] 101 % of control

Cc1noc(N)c1N
inactive: dose: 12.5 mg/kg/injection, vehicle: water 101 % of control | dose: 25.0 mg/kg/injection, vehicle: water 95 % of control | dose: 50.0 mg/kg/injection, vehicle: water 102 % of control | dose: 100.0 mg/kg/injection, vehicle: water 92 % of control | dose: 200.0 mg/kg/injection, vehicle: water 98 % of control | dose: 400.0 mg/kg/injection, vehicle: water 106 % of control

CCOC(=O)Nc1cc2c(c(N)n1)N=C(c1ccccc1)CN2
inactive: dose: 1.25 mg/kg/injection, vehicle: saline with Tween-80 105 % of control | dose: 2.5 mg/kg/injection, vehicle: saline with Tween-80 105 % of control | dose: 5.0 mg/kg/injection, vehicle: saline with Tween-80 100 % of control

N[C@@H](Cc1ccc(N(CCCl)CCCl)cc1)C(=O)O
inactive: dose: 0.5 mg/kg/injection, vehicle: saline 102 % of control | dose: 1.0 mg/kg/injection, vehicle: saline 95 % of control | dose: 2.0 mg/kg/injection, vehicle: saline 99 % of control

O=S(=O)(N=N/C=C1\C=CC=CN1O)c1cccs1
inactive: dose: 12.5 mg/kg/injection, vehicle: saline with Tween-80 111 % of control | [10] 103 % of control | [11] 103 % of control | [12] 107 % of control

C[C@]12CCC(=O)C=C1CC[C@@H]1[C@@H]2[C@@H](O)C[C@@]2(C)[C@H]1CC[C@]2(O)C(=O)CO
inactive: [13] 110 % of control | [7] 107 % of control | [8] 97 % of control | [9] 106 % of control | [1] 100 % of control

O=C(C1CO1)C(Cl)(Cl)Cl (stereo unspecified)
inactive: dose: 1.5 mg/kg/injection, vehicle: saline 95 % of control | dose: 3.0 mg/kg/injection, vehicle: saline 92 % of control | dose: 6.0 mg/kg/injection, vehicle: saline 97 % of control | dose: 12.0 mg/kg/injection, vehicle: saline 95 % of control | [10] 108 % of control

[Cl][Co]([Cl])[Cl].[NH-]CC[N-]CC[NH-]
inactive: [4] 103 % of control | [5] 96 % of control | [6] 93 % of control

Cc1ccc(C2NC(=S)N3C(c4ccc(C)cc4)NC(=S)N23)cc1 (stereo unspecified)
inactive: [7] 103 % of control | [8] 101 % of control | [9] 93 % of control | [1] 99 % of control | [2] 98 % of control | [3] 109 % of control

CCS/C(SC)=C(/c1ccccc1)[P+](c1ccccc1)(c1ccccc1)c1ccccc1
inactive: dose: 0.12 mg/kg/injection, vehicle: Klucel (hydroxypropylcellulose) (HPC) 106 % of control | dose: 0.25 mg/kg/injection, vehicle: Klucel (hydroxypropylcellulose) (HPC) 108 % of control | dose: 0.5 mg/kg/injection, vehicle: Klucel (hydroxypropylcellulose) (HPC) 101 % of control | dose: 1.0 mg/kg/injection, vehicle: Klucel (hydroxypropylcellulose) (HPC) 104 % of control | dose: 1.5 mg/kg/injection, vehicle: Klucel (hydroxypropylcellulose) (HPC) 100 % of control | dose: 2.0 mg/kg/injection, vehicle: Klucel (hydroxypropylcellulose) (HPC) 93 % of control
